In patent US10406120B2, “Methods and compositions for treating kidney disorders” (Golden Biotechnology Corporation, priority 2013, dated 2019):

Experiments:
[1] = AcP-IgAN model: body weight and general condition; type: in vivo, B cell-deficient mice; settings: AcP-IgAN mice, 50 mg/kg, up to day 28
Procedure: (§1) B cell-deficient mice (B6.129S2-Igh-6tm1Cgn/J) were obtained from the Academia Sinica (Professor John T. Kung, Institute of Molecular Biology), and maintained at the animal center of the National Defense Medical Center, Taipei, Taiwan. AcP-IgAN was induced in the mice by daily injection of purified IgA anti-phosphorylcholine antibodies and pneumococcal C-polysaccharide (PnC) as described previously (Chao, et al., Kidney Int. 70:283-297; 2006). All animal experiments were performed with the approval of the Institutional Animal Care and Use Committee of The National Defense Medical Center, Taiwan, and were consistent with the NIH Guide for the Care and Use of Laboratory Animals.
Body weight of the mice was measured weekly. Urine samples were collected in metabolic cages weekly, and urine protein determined followed the know methods (Chao, et al., Kidney Int. 70:283-297; 2006). Serum samples were collected at day 3 and day 28 to measure serum levels of blood urea nitrogen (BUN) and creatinine (Cr).

ROS = assay: AcP-IgAN model: ROS levels; type: in vivo, B cell-deficient mice; settings: AcP-IgAN mice
Procedure: Kidney in-situ superoxide anion production was determined by DHE labeling according to the known method. (Wu, et al., Nephrol Dial Transplant, 2008, 23: 3082-3090, or Ka, et al., J. Am. Soc. Nephrol. 2007, 18:2473-2485) Fluorescent images were quantified by counting the percentage of positive nuclei in the total nuclei per kidney cross section. Sera and kidney tissues were assessed for superoxide anion according to the known method. (Wu, et al., J Pineal Res, 2001, 30: 147-156, or Ka, et al., J. Am. Soc. Nephrol. 2007, 18:2473-2485) For ROS levels of serum, urine, and renal tissue, the samples were incubated with Krebs-HEPES buffer, and lucigenin (Sigma-Aldrich Chemical Co, MO) at 1.25 mM was used as substrate. Luminescence counts were obtained in duplicate at 15 sec intervals by a microplate luminometer (Hidex Microplate Luminometer, Finland), as previously described (Kretzler, et al.,. Virchows Arch, 425: 181-193, 1994). The superoxide anion activity was expressed as relative luminescence units (RLU) per 15 min per mg of organ dry weight (i.e., RUL/15 min/mg) or RLU/15 min/ml.
as §1

IL-1β = assay: AcP-IgAN model: serum IL-1β ELISA; type: in vivo, B cell-deficient mice; settings: AcP-IgAN mice, day 28, vs control AcP-IgAN mice (FIG. 15C)
Procedure: as §1
Serum levels of IL-1β (eBiosceience, CA), IL-6 (eBiosceience), IL-18 (MBL, Japan), and MCP-1 (eBiosceience) were measured using commercial ELISA kits according to the manufacturer's instructions.

splenocytes = assay: AcP-IgAN model: flow cytometry of T cell activation in splenocytes; type: in vivo, B cell-deficient mice; settings: AcP-IgAN mice
Procedure: as §1
Splenocytes from the mice were treated with Tris-buffered ammonium chloride to eliminate erythrocytes, washed, resuspended in RPMI 1640 supplemented with 10% fetal calf serum, HEPES buffer, L-glutamine, and penicillin/streptomycin (all from Invitrogen). The cells were stained with either surface marker for T or B cell activation. FITC-conjugated anti-mouse CD3, CD4, CD8, or CD19 (B cell) antibodies and phycoerythrin (PE)-conjugated anti-mouse CD69 antibodies (all from BD Biosciences) were analyzed with FACSCalibur (BD Biosciences).

desmin = assay: FSGS model: podocyte injury, desmin IHC; type: in vivo, BALB/c mice; settings: FSGS mice
Procedure: Experiments described herein were performed on 8-week-old female BALB/c mice. The FSGS mice were injected intravenously with a single dose of adriamycin (0.1 mg/10 g body weight). The mice were given Compound 1 six hours before adriamycin injection by gavage daily till sacrifice. BALB/c mice intraperitoneal injected with normal saline were used as normal controls, while ASLN mice given vehicle (corn oil) by gavage were used as disease controls. Mice were killed at day 7, 14, or 21 after disease induction, and spleen, renal cortical tissue, and blood samples collected and stored appropriately until analysis. […]
(§2) For IHC, formalin-fixed and paraffin-embedded renal sections were prepared and incubated with primary antibodies against mouse Desmin (Lab Vision, CA, USA), CD3 (pan-T cell; Serotec, N.C., USA), F4/80 (monocytes/macrophages; Serotec), IL-6 (R&D Systems, MN, USA), NF-κB p65 (Cell Signaling Technology, MA, USA), collagen I, III, and IV (Southern Biotech, AL, USA), or TGF-β1 (Santa Cruz Biotechnology, CA, USA), biotinylated second antibodies (Dako, Glostrup, Denmark), and avidin-biotin-peroxidase complex (Dako). Semi-quantitative evaluation of staining was performed.

TGF-β1 = assay: FSGS model: TGF-β1 in serum and kidney (ELISA, IHC); type: in vivo, BALB/c mice; settings: FSGS mice
Procedure: Experiments described herein were performed on 8-week-old female BALB/c mice. The FSGS mice were injected intravenously with a single dose of adriamycin (0.1 mg/10 g body weight). The mice were given Compound 1 six hours before adriamycin injection by gavage daily till sacrifice. BALB/c mice intraperitoneal injected with normal saline were used as normal controls, while ASLN mice given vehicle (corn oil) by gavage were used as disease controls. Mice were killed at day 7, 14, or 21 after disease induction, and spleen, renal cortical tissue, and blood samples collected and stored appropriately until analysis. All animal experiments were performed with the ethical approval of the Institutional Animal Care and Use Committee of The National Defense Medical Center, Taiwan and performed according to the ethical rules in the NIH Guide for the Care and Use of Laboratory Animals.
as §2
The TGF-β1 protein levels in serum and renal tissue were measured using the commercial ELISA kits (R&D Systems), according to the manufacturer's instructions. Samples were acidified with 1 N HCl and neutralized with 1.2 N NaOH/0.5 M HEPES to assay for the amount of TGF-β1.

[2] = day 3, vs control AcP-IgAN mice
[3] = day 28, vs control AcP-IgAN mice
[4] = day 14 and day 21, vs control FSGS mice

With COC1=C(OC)[C@H](O)[C@H](C/C=C(\C)CC/C=C(\C)CCC=C(C)C)[C@@H](C)C1=O [Compound 1, Antroquinonol] the “activity, hair loss, appetite” value [1] was “normal activity and no evidence of hair loss or appetite change”, the “growth (body weight recorded every week)” value [1] was “no different from that of normal controls” and the “ROS levels in sera” value (ROS; [2]) was “substantial reduction”. The “ROS levels in renal tissues” value (ROS; [3]) was “substantial reduction”, the “ROS levels in sera” value (ROS; [3]) was “substantial reduction” and the “ROS levels in urine” value (ROS; [3]) was “substantial reduction”. For the same compound, the “serum levels of IL-1β (increase)” value (IL-1β) was “greatly inhibited”, the “percentage of CD3^+/CD69^+ T cells in splenocytes” value (splenocytes; [2]) was “significant reduction” and the “percentage of CD4^+/CD69^+ T cells in splenocytes” value (splenocytes; [2]) was “no significant difference”. For the same compound, the “percentage of CD8^+/CD69^+ T cells in splenocytes” value (splenocytes; [2]) was “no significant difference”, the “percentage of each of the three subtypes of T cells (CD3^+/CD69^+, CD4^+/CD69^+, CD8^+/CD69^+)” value (splenocytes; day 28) was “no different from that of normal controls” and the “expression of desmin (IHC)” value (desmin; day 21, compared to normal control mice) was “mild desmin expression levels”. The “expression of desmin (IHC)” value (desmin; days 14 and 21, vs control FSGS mice) was “significantly reduced”, the “TGF-β1 protein levels in kidney (ELISA)” value (TGF-β1; [4]) was “greatly abrogated” and the “TGF-β1 protein levels in serum (ELISA)” value (TGF-β1; [4]) was “greatly abrogated”. For the same compound, the “TGF-β1 protein expression in the kidney (IHC)” value (TGF-β1; vs control FSGS mice) was “significantly lower”.
